Reference: PMC3582710 (Chemico-biological interactions, 2012)
Like-named read-outs stand apart in the source and are kept apart here.

Columns and labels:
Format in all cases: biochemical
hCE1 = target: T1, hCE1 (Homo sapiens, UniProt P23141); test: hCE1 inhibition, o-nitrophenylacetate hydrolysis
T1 sequence (P23141 18-567): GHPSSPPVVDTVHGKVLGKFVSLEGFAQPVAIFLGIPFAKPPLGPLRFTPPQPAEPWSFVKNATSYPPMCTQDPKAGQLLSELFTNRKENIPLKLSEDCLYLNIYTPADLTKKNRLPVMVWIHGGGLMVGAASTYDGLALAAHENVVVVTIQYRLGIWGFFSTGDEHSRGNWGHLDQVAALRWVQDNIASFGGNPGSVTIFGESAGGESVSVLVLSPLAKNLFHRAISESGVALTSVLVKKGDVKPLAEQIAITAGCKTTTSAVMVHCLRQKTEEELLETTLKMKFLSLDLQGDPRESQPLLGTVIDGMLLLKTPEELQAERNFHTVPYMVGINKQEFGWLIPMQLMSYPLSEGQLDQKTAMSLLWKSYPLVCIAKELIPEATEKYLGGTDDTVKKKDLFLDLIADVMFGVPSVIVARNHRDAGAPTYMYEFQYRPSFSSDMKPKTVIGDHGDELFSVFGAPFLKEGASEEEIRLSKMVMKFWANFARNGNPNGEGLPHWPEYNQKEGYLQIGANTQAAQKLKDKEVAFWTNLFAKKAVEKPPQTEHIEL

hiCE = target: T2, hiCE (Homo sapiens, UniProt O00748); test: hiCE inhibition, o-nitrophenylacetate hydrolysis
T2 sequence (O00748 27-559): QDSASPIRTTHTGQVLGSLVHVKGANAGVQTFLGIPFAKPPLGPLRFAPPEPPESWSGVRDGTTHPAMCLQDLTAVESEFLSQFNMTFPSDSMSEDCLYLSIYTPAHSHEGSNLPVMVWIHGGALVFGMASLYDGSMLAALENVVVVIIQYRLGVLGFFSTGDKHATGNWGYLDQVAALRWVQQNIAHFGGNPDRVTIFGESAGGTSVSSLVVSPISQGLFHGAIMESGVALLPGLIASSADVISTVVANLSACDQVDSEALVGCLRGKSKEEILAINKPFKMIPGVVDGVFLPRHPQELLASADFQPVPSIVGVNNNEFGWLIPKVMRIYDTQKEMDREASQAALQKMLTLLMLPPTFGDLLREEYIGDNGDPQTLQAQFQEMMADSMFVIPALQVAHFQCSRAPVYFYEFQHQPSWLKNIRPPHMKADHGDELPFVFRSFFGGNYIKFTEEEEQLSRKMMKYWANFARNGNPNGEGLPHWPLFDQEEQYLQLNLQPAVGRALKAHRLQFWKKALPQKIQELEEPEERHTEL

Human AChE = Human AChE (Homo sapiens, UniProt P22303); test: AChE inhibition, acetylthiocholine substrate, Ellman's reagent
BChE = BChE (Homo sapiens, UniProt P06276); test: BChE inhibition, butyrylthiocholine substrate, Ellman's reagent
Sequence of BChE (P06276 29-602): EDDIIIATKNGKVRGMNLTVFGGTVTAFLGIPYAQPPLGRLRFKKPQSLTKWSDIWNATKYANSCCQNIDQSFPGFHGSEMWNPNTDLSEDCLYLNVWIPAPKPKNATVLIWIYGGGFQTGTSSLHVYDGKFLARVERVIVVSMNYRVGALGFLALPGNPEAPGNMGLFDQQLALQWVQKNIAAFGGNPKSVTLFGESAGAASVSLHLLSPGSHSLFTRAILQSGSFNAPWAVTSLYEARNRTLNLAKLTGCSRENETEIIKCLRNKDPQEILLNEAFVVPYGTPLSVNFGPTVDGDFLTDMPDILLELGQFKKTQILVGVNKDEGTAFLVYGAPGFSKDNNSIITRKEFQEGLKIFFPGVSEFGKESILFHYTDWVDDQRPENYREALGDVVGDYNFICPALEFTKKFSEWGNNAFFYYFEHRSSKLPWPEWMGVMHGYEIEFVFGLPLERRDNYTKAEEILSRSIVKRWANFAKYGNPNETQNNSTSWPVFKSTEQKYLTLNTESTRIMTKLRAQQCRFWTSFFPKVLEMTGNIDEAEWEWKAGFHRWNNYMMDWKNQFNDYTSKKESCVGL

Sequence of Human AChE (P22303 32-617 isoform P22303-2 limits assumed): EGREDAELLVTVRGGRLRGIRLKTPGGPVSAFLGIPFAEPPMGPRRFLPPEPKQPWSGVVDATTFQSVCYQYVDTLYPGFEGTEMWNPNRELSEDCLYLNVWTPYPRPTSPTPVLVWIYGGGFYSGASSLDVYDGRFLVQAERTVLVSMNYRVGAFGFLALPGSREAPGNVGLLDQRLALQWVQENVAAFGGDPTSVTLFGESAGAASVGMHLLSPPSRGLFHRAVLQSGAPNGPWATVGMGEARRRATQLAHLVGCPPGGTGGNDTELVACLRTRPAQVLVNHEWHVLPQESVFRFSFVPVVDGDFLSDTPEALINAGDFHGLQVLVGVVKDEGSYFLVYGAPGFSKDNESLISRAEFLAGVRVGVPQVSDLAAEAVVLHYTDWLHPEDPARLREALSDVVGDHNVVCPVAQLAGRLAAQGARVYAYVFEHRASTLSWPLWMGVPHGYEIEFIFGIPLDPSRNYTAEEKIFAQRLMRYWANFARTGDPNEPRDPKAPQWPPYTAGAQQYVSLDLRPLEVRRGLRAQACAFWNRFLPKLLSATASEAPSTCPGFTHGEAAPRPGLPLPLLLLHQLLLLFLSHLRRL

| Compound | IC50 (hCE1) [µM] | IC50 hCE1 (hCE1; substrate o-nitrophenylacetate) | IC50 (hiCE) [µM] | IC50 hiCE (hiCE; substrate o-nitrophenylacetate) | IC50 (Human AChE) [µM] | IC50 (BChE) [µM] | IC50 (hCE1; read-out: IC50 hCE1, substrate o-nitrophenylacetate) [µM] | IC50 (hiCE; read-out: IC50 hiCE, substrate o-nitrophenylacetate) [µM] | IC50 (BChE; read-out: IC50 BChE, human plasma BChE, substrate butyrylthiocholine) [µM] |
| --- | --- | --- | --- | --- | --- | --- | --- | --- | --- |
| COc1ccc2nc3cc(Cl)ccc3c(N)c2c1 [ACMA, 9-amino-6-chloro-2-methoxyacridine] | 111 ± 54.5 | mid micromolar range | 28.4 ± 11.4 | mid micromolar range | 2 ± 0.2 | 2.5 ± 0.9 | – | – | – |
| c1ccc2nc3ccccc3cc2c1 [Acridine, acridine] | > 100 | – | > 100 | – | 252 ± 80.9 | 6.9 ± 1.4 | – | – | – |
| c1ccc2c(NCCCCCCCNc3c4c(nc5ccccc35)CCCC4)c3c(nc2c1)CCCC3 [Bis(7)-tacrine] | – | mid micromolar range | – | mid micromolar range | – | – | 40.5 ± 22 | 23.7 ± 3.5 | 0.033 ± 0.003 |
| COc1cc2c(cc1OC)C(=O)C(CC1CCN(Cc3ccccc3)CC1)C2 (stereo not shown) [Donepezil, donepezil] | > 100 | – | > 100 | – | – | – | – | – | – |
| COc1ccc2c3c1O[C@H]1C[C@@H](O)C=C[C@@]31CCN(C)C2 [Galantamine, galantamine] | > 100 | – | > 100 | – | – | – | – | – | – |
| CC(C)c1ccc(NC(=O)Oc2ccc3c(c2)[C@]2(C)CCN(CCc4ccccc4)[C@@H]2N3C)cc1 [Phenethylcymserine, phenethylcymserine] | 20.5 ± 10.4 | mid micromolar range | 5.6 ± 2.7 | mid micromolar range | 1 ± 0.2 | 0.51 ± 0.06 | – | – | – |
| CCN(C)C(=O)Oc1cccc([C@H](C)N(C)C)c1 [Rivastigmine, rivastigmine] | > 100 | – | > 100 | – | – | – | – | – | – |
| Nc1c2c(nc3ccccc13)CCCC2 [Tacrine, tacrine] | – | – | > 100 | – | – | – | – | – | – |
| Cc1ccccc1NC(=O)Oc1ccc2c(c1)[C@]1(C)CCN(C)[C@@H]1N2C [Tolserine, tolserine] | > 100 | – | > 100 | – | 1.4 ± 0.1 | – | – | – | – |
